According to patent publication US11572398B2, “GLP-1 derivatives and uses thereof” (Novo Nordisk A/S, priority 2014, dated 2023):
Where two headings read alike, the source gives them in different places. Non-standard residues stand in square brackets, D forms with d. Residues, ends and D or L forms follow the SMILES beside them. *: point of attachment. X1 = O=C(O)CCCCCCCCCCCCCCCCCCC(=O)NC[C@H]1CC[C@H](C(=O)N[C@@H](CCC(=O)NCCOCCOCC(=O)NCCOCCOCC(=O)NCCOCCOCC(=O)NCCOCCOCC(=O)NCCOCCOCC(=O)NCCOCCOCC(=O)NCCCN(CCCNC(=O)COCCOCCNC(=O)COCCOCCNC(=O)COCCOCCNC(=O)COCCOCCNC(=O)COCCOCCNC(=O)COCCOCCNC(=O)CC[C@H](NC(=O)[C@H]2CC[C@H](CNC(=O)CCCCCCCCCCCCCCCCCCC(=O)O)CC2)C(=O)O)CC(=O)*)C(=O)O)CC1; Aib = CC(C)(N)C(=O)O

Columns and labels:
[1] = Pharmacokinetic study in minipigs (i.v.); conditions: male, Göttingen, minipig, in vivo, iv, 2 nmol/kg
Procedure: (§1) The purpose of this study is to determine the protraction in vivo of the GLP-1 derivatives after i.v. administration to minipigs, i.e. the prolongation of their time in the body and thereby their time of action. This is done in a pharmacokinetic (PK) study, where the terminal half-life of the derivative in question is determined. By terminal half-life is meant the time it takes to halve a certain plasma concentration in the terminal elimination phase.
(§2) Male Göttingen minipigs were obtained from Ellegaard Göttingen Minipigs (Dalmose, Denmark) approximately 7-14 months of age and weighing approximately 16-35 kg were used in the studies. The minipigs were housed either individually (pigs with permanent catheters) or in a group and fed restrictedly once or twice daily with SDS minipig diet (Special Diets Services, Essex, UK).
(§3) After at least 2 weeks of acclimatisation two permanent central venous catheters were implanted in vena cava caudalis or cranialis in each animal. The animals were allowed 1 week recovery after the surgery, and were then used for repeated pharmacokinetic studies with a suitable wash-out period between successive GLP-1 derivative dosings.
(§4) Blood samples (for example 0.8 ml) were collected in EDTA buffer (8 mM) and then centrifuged at 4° C. and 1942G for 10 minutes.
(§5) Plasma was pipetted into Micronic tubes on dry ice, and kept at −20° C. until analysed for plasma concentration of the respective GLP-1 compound using LOCI. Individual plasma concentration-time profiles were analyzed by a non-compartmental pharmacokinetic method in Phoenix v. 6.2 (Pharsight Inc., Mountain View, Calif., USA), or other relevant software for PK analysis, and the resulting terminal half-lives (harmonic mean) determined.

in vivo = conditions: male, Göttingen, minipig, iv
Procedure: as §1, §2, §3, §4, §5

human GLP-1 receptor [2] = molecular target: T1, human GLP-1 receptor (Homo sapiens, UniProt P43220); assay: GLP-1 receptor binding: competitive binding assay (125I-GLP-1, SPA) on isolated membranes at low and high HSA
T1 construct: expressed in transfected cells; host or cells: BHK cells (parent line BHKTS13), clone FCW467-12A; membrane preparation
T1 sequence (P43220 24-463): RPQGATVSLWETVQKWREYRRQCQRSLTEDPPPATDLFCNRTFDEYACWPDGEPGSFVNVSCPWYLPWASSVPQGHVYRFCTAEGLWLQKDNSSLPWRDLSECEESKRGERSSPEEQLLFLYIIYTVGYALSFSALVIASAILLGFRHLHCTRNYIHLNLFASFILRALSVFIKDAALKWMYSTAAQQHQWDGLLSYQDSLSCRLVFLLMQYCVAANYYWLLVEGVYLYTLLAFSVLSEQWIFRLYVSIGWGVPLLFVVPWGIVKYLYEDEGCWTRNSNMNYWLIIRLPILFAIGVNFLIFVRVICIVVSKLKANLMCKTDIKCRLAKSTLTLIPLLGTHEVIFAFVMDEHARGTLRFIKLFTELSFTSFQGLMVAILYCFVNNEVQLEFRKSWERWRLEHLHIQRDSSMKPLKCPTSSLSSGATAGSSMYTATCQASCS

human GLP-1 receptor [3] = molecular target: T1, human GLP-1 receptor; assay: In vitro potency: CRE luciferase reporter gene assay in BHK cells expressing the human GLP-1 receptor; assay type: cell-based; conditions: whole cell reporter gene assay, BHK cells, human GLP-1 receptor; average of at least two replicates; read-out: EC50
How it was run: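 Whole-cell assay in stably transfected BHK cells carrying CRE-driven firefly luciferase, 5×10^3 cells/well, in assay buffer with 2% ovalbumin and 0.2% Pluronic F-68. Compound working solutions were 0.2 μM.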

[4] = high HSA (2.0% final assay concentration), read-out: High HSA IC50
[5] = low HSA (max. 0.001% final assay concentration), read-out: Low HSA IC50

Compound	half-life [1] [h]	half-life (in vivo) [h]	IC50 (human GLP-1 receptor [2]; [4]) [nM]	IC50 (human GLP-1 receptor [2]; [5]) [nM]	EC50 (human GLP-1 receptor [3]) [nM]
CC[C@H](C)[C@H](NC(=O)[C@H](Cc1ccccc1)NC(=O)[C@H](CCC(=O)O)NC(=O)[C@H](CCCNC(=N)N)NC(=O)[C@H](C)NC(=O)[C@H](C)NC(=O)[C@H](CCC(N)=O)NC(=O)[C@H](CCC(=O)O)NC(=O)[C@H](CCC(=O)O)NC(=O)[C@H](CC(C)C)NC(=O)[C@H](Cc1ccc(O)cc1)NC(=O)[C@H](CO)NC(=O)[C@H](CO)NC(=O)[C@@H](NC(=O)[C@H](CC(=O)O)NC(=O)[C@H](CO)NC(=O)[C@@H](NC(=O)[C@H](Cc1ccccc1)NC(=O)[C@@H](NC(=O)CNC(=O)[C@H](CCC(=O)O)NC(=O)C(C)(C)NC(=O)[C@@H](N)Cc1c[nH]cn1)[C@@H](C)O)[C@@H](C)O)C(C)C)C(=O)N[C@@H](C)C(=O)N[C@@H](Cc1c[nH]c2ccccc12)C(=O)N[C@@H](CC(C)C)C(=O)N[C@H](C(=O)N[C@@H](CCCNC(=N)N)C(=O)NCC(=O)N[C@@H](CCCNC(=N)N)C(=O)N1CCC[C@H]1C(=O)N[C@@H](CCCCNC(=O)CN(CCCNC(=O)COCCOCCNC(=O)COCCOCCNC(=O)COCCOCCNC(=O)COCCOCCNC(=O)COCCOCCNC(=O)COCCOCCNC(=O)CC[C@H](NC(=O)[C@H]1CC[C@H](CNC(=O)CCCCCCCCCCCCCCCCCCC(=O)O)CC1)C(=O)O)CCCNC(=O)COCCOCCNC(=O)COCCOCCNC(=O)COCCOCCNC(=O)COCCOCCNC(=O)COCCOCCNC(=O)COCCOCCNC(=O)CC[C@H](NC(=O)[C@H]1CC[C@H](CNC(=O)CCCCCCCCCCCCCCCCCCC(=O)O)CC1)C(=O)O)C(=O)O)C(C)C [Example 10] (H-H[Aib]EGTFTSDVSSYLEEQAAREFIAWLVRGRPK(X1)-OH; N-terminus and C-terminus assumed)	151	–	–	–	–
CC[C@H](C)[C@H](NC(=O)[C@H](Cc1ccccc1)NC(=O)[C@H](CCC(=O)O)NC(=O)[C@H](CCCNC(=N)N)NC(=O)[C@H](C)NC(=O)[C@H](C)NC(=O)[C@H](CCC(N)=O)NC(=O)[C@H](CCC(=O)O)NC(=O)[C@H](CCC(=O)O)NC(=O)[C@H](CC(C)C)NC(=O)[C@H](Cc1ccc(O)cc1)NC(=O)[C@H](CO)NC(=O)[C@H](CO)NC(=O)[C@@H](NC(=O)[C@H](CC(=O)O)NC(=O)[C@H](CO)NC(=O)[C@@H](NC(=O)[C@H](Cc1ccccc1)NC(=O)[C@@H](NC(=O)CNC(=O)[C@H](CCC(=O)O)NC(=O)C(C)(C)NC(=O)[C@@H](N)Cc1c[nH]cn1)[C@@H](C)O)[C@@H](C)O)C(C)C)C(=O)N[C@@H](C)C(=O)N[C@@H](Cc1c[nH]c2ccccc12)C(=O)N[C@@H](CC(C)C)C(=O)N[C@H](C(=O)N[C@@H](CCCNC(=N)N)C(=O)NCC(=O)N[C@@H](CCCNC(=N)N)C(=O)N[C@@H](CCCCNC(=O)CN(CCCNC(=O)CCOCCOCCOCCOCCOCCOCCOCCOCCOCCOCCOCCOCCOCCOCCOCCOCCOCCOCCOCCOCCOCCOCCOCCOCCNC(=O)[C@@H](N)CCCCNC(=O)[C@@H](N)CCCCNC(=O)CCCCCCCCCCCCCCCCCCC(=O)O)CCCNC(=O)CCOCCOCCOCCOCCOCCOCCOCCOCCOCCOCCOCCOCCOCCOCCOCCOCCOCCOCCOCCOCCOCCOCCOCCOCCNC(=O)[C@@H](N)CCCCNC(=O)[C@@H](N)CCCCNC(=O)CCCCCCCCCCCCCCCCCCC(=O)O)C(=O)O)C(C)C [Example 6]	–	143	9	0.05	0.0072
CC[C@H](C)[C@H](NC(=O)[C@H](Cc1ccccc1)NC(=O)[C@H](CCC(=O)O)NC(=O)[C@H](CCCNC(=N)N)NC(=O)[C@H](C)NC(=O)[C@H](C)NC(=O)[C@H](CCC(N)=O)NC(=O)[C@H](CCC(=O)O)NC(=O)[C@H](CCC(=O)O)NC(=O)[C@H](CC(C)C)NC(=O)[C@H](Cc1ccc(O)cc1)NC(=O)[C@H](CO)NC(=O)[C@H](CO)NC(=O)[C@@H](NC(=O)[C@H](CC(=O)O)NC(=O)[C@H](CO)NC(=O)[C@@H](NC(=O)[C@H](Cc1ccccc1)NC(=O)[C@@H](NC(=O)CNC(=O)[C@H](CCC(=O)O)NC(=O)C(C)(C)NC(=O)[C@@H](N)Cc1c[nH]cn1)[C@@H](C)O)[C@@H](C)O)C(C)C)C(=O)N[C@@H](C)C(=O)N[C@@H](Cc1c[nH]c2ccccc12)C(=O)N[C@@H](CC(C)C)C(=O)N[C@H](C(=O)N[C@@H](CCCNC(=N)N)C(=O)NCC(=O)N[C@@H](CCCNC(=N)N)C(=O)N[C@@H](CCCCNC(=O)COCCOCCNC(=O)COCCOCCNC(=O)COCCOCCNC(=O)COCCOCCNC(=O)CN(CCCNC(=O)CC[C@H](NC(=O)[C@H]1CC[C@H](CNC(=O)CCCCCCCCCCCCCCCCCCC(=O)O)CC1)C(=O)O)CCCNC(=O)CC[C@H](NC(=O)[C@H]1CC[C@H](CNC(=O)CCCCCCCCCCCCCCCCCCC(=O)O)CC1)C(=O)O)C(=O)O)C(C)C [Example 27, N{Epsilon-37}-[2-[2-[2-[[2-[2-[2-[[2-[2-[2-[[2-[2-[2-[[2-[bis[3-[[(4S)-4-carboxy-4-[[4-[(19-carboxynonadecanoylamino)methyl]cyclohexanecarbonyl]amino]butanoyl]amino]propyl]amino]acetyl]amino]ethoxy]ethoxy]acetyl]amino]ethoxy]ethoxy]acetyl]amino]ethoxy]ethoxy]acetyl]amino]ethoxy]ethoxy]acetyl]-[Aib8,Glu22,Arg26,Arg34,Lys37]-GLP-1-(7-37)-peptide]	138	–	–	–	–
CC[C@H](C)[C@H](NC(=O)[C@H](Cc1ccccc1)NC(=O)[C@H](CCC(=O)O)NC(=O)[C@H](CCCNC(=N)N)NC(=O)[C@H](C)NC(=O)[C@H](C)NC(=O)[C@H](CCC(N)=O)NC(=O)[C@H](CCC(=O)O)NC(=O)[C@H](CCC(=O)O)NC(=O)[C@H](CC(C)C)NC(=O)[C@H](Cc1ccc(O)cc1)NC(=O)[C@H](CO)NC(=O)[C@H](CO)NC(=O)[C@@H](NC(=O)[C@H](CC(=O)O)NC(=O)[C@H](CO)NC(=O)[C@@H](NC(=O)[C@H](Cc1ccccc1)NC(=O)[C@@H](NC(=O)CNC(=O)[C@H](CCC(=O)O)NC(=O)C(C)(C)NC(=O)[C@@H](N)Cc1c[nH]cn1)[C@@H](C)O)[C@@H](C)O)C(C)C)C(=O)N[C@@H](C)C(=O)N[C@@H](Cc1c[nH]c2ccccc12)C(=O)N[C@@H](CC(C)C)C(=O)N[C@H](C(=O)N[C@@H](CCCNC(=N)N)C(=O)NCC(=O)N[C@@H](CCCNC(=N)N)C(=O)N[C@@H](CCCCNC(=O)COCCOCCNC(=O)COCCOCCNC(=O)COCCOCCNC(=O)COCCOCCNC(=O)COCCOCCNC(=O)COCCOCCNC(=O)CN(CCCNC(=O)CC[C@H](NC(=O)CCCCCCCCCCCCCCCCCCC(=O)O)C(=O)O)CCCNC(=O)CC[C@H](NC(=O)CCCCCCCCCCCCCCCCCCC(=O)O)C(=O)O)C(=O)O)C(C)C [Example 26, N{Epsilon-37}-[2-[2-[2-[[2-[2-[2-[[2-[2-[2-[[2-[2-[2-[[2-[2-[2-[[2-[2-[2-[[2-[bis[3-[[(4S)-4-carboxy-4-(19-carboxynonadecanoylamino)butanoyl]amino]propyl]amino]acetyl]amino]ethoxy]ethoxy]acetyl]amino]ethoxy]ethoxy]acetyl]amino]ethoxy]ethoxy]acetyl]amino]ethoxy]ethoxy]acetyl]amino]ethoxy]ethoxy]acetyl]amino]ethoxy]ethoxy]acetyl]-[Aib8,Glu22,Arg26,Arg34,Lys37]-GLP-1-(7-37)-peptide]	–	131	29	0.36	–
CC[C@H](C)[C@H](NC(=O)[C@H](Cc1ccccc1)NC(=O)[C@H](CCC(=O)O)NC(=O)[C@H](CCCNC(=N)N)NC(=O)[C@H](C)NC(=O)[C@H](C)NC(=O)[C@H](CCC(N)=O)NC(=O)[C@H](CCC(=O)O)NC(=O)[C@H](CCC(=O)O)NC(=O)[C@H](CC(C)C)NC(=O)[C@H](Cc1ccc(O)cc1)NC(=O)[C@H](CO)NC(=O)[C@H](CO)NC(=O)[C@@H](NC(=O)[C@H](CC(=O)O)NC(=O)[C@H](CO)NC(=O)[C@@H](NC(=O)[C@H](Cc1ccccc1)NC(=O)[C@@H](NC(=O)CNC(=O)[C@H](CCC(=O)O)NC(=O)C(C)(C)NC(=O)[C@@H](N)Cc1c[nH]cn1)[C@@H](C)O)[C@@H](C)O)C(C)C)C(=O)N[C@@H](C)C(=O)N[C@@H](Cc1c[nH]c2ccccc12)C(=O)N[C@@H](CC(C)C)C(=O)N[C@H](C(=O)N[C@@H](CCCNC(=N)N)C(=O)NCC(=O)N[C@@H](CCCNC(=N)N)C(=O)N[C@@H](CCCCNC(=O)CN(CCCNC(=O)COCCOCCNC(=O)COCCOCCNC(=O)COCCOCCNC(=O)COCCOCCNC(=O)[C@@H](N)CCCCNC(=O)[C@@H](N)CCCCNC(=O)CCCCCCCCCCCCCCCCCCC(=O)O)CCCNC(=O)COCCOCCNC(=O)COCCOCCNC(=O)COCCOCCNC(=O)COCCOCCNC(=O)[C@@H](N)CCCCNC(=O)[C@@H](N)CCCCNC(=O)CCCCCCCCCCCCCCCCCCC(=O)O)C(=O)O)C(C)C [Example 2, N{Epsilon-37}-[2-[bis[3-[[2-[2-[2-[[2-[2-[2-[[2-[2-[2-[[2-[2-[2-[[(2S)-2-amino-6-[[(2S)-2-amino-6-(19-carboxynonadecanoylamino)hexanoyl]amino]hexanoyl]amino]ethoxy]ethoxy]acetyl]amino]ethoxy]ethoxy]acetyl]amino]ethoxy]ethoxy]acetyl]amino]ethoxy]ethoxy]acetyl]amino]propyl]amino]acetyl]-[Aib8,Glu22,Arg26,Arg34,Lys37]-GLP-1-(7-37)-peptide]	–	113	11	0.19	–
